Patent publication US4510136A (priority 1983, dated 1985)

Assays:
[1] = system: Puccinia recondita var. tritici; assay: Wheat leaf rust control on sprayed wheat seedlings (Example 79); type: in vivo; details: Puccinia recondita, 168 h; 100 ppm spray, day before inoculation
In short: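 Disease was scored as leaf rust pustules 7 days after a 24 h, 20° saturated-humidity incubation of seedlings inoculated with P. recondita var. tritici spores. Inoculation followed by one day a run-off spray of 100 ppm compound in water containing 6% acetone and 250 ppm TREM 014.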

[2] = system: Erysiphe cichoracearum; assay: Cucumber powdery mildew control on sprayed cucumber seedlings (Example 80); type: in vivo; details: Golovinomyces cichoracearum, 168 h, 100 ppm spray, day before inoculation
[3] = system: Venturia inaequalis; assay: Apple scab control on sprayed apple seedlings (Example 82); type: in vivo; details: Venturia inaequalis, 100 ppm spray, day before inoculation
[4] = system: Helminthosporium maydis; assay: Southern corn leaf blight control on sprayed corn seedlings (Example 83); type: in vivo; details: Bipolaris maydis, 192 h, 100 ppm spray, day before inoculation
In short: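 Corn seedlings were sprayed to run-off with 100 ppm suspensions (6% acetone, 250 ppm TREM 014) and spore-inoculated the following day. Disease and growth reduction were rated after 24 h saturated humidity at 20° plus 7 days in a growth room.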

[5] = system: Cercospora arachidicola; assay: Peanut early leafspot control on sprayed peanut seedlings (Example 84); type: in vivo; details: Mycosphaerella arachidis, 360 h, 100 ppm spray, day before inoculation; read-out: % Control Peanut Easly Leafspot
[6] = system: Monilinia fructicola; assay: Stone fruit brown rot control on dipped canned peach halves (Example 86); details: 120 h, 100 ppm dip, percent growth inhibition of colonies after five days
Description: Several compounds of the previous examples were again dissolved in acetone in an amount equal to 5% of the final volume and then suspended at a concentration of 100 ppm in purified water containing 700 ppm of the surfactant TREM 014 (polyhydric alcohol esters). Canned peach halves were dipped in this suspension for three minutes and then placed to air dry in sterile containers. Upon drying, the peach halves were inoculated with two pieces of Monilinia fructicola mycelium, causal agent of stone fruit brown rot, and incubated in the sterile containers for five days. At that time the radii of the colonies' growth were measured on each peach. […] Percent disease control (percent growth inhibition of colonies on treated peaches as compared to that of colonies on untreated peaches) is expressed in the table below.

[7] = system: Pyricularia oryzae; assay: whole plant or invertebrate; type: in vivo; details: Pyricularia oryzae, 168 h, read-out: % Control of Rice Blast, 100 ppm spray, day before inoculation
[8] = system: Phytophthora infestans; assay: whole plant or invertebrate; type: in vivo; details: Phytophthora infestans, in Solanum lycopersicum, 168 h, read-out: % Control of Tomato Late Blight, 100 ppm spray, day before inoculation
[9] = system: 5 Phytophthora species; type: cell-based; details: 200.0 ppm in V-8 agar, 22° C., 6 days
[10] = system: Pythium aphanadermatum; assay: Pythium control on cotton, seed coating (Example 91); type: in vivo; details: 168 h, 2 gm/kg seed
Description: Several compounds of the previous examples were incorporated into a proprietary formulation and used to coat cotton seeds at a rate of 2 gm/kg seed. After being thoroughly coated, the seeds were allowed to air dry at room temperature. The cotton seeds were then planted into soil amended with the fungus Pythium aphanadermatum, sand, and corn meal at a rate sufficient to kill most untreated seeds. The seeds were held at room temperature for 1 week, after which time disease ratings were made.

[11] = system: Pythium aphanadermatum; assay: Pythium control on corn, seed coating (Example 92); type: in vivo; details: 504 h, 2 gm/kg seed
Procedure: Several compounds of the previous examples were incorporated into a proprietary formulation and used to coat corn seeds at a rate of 2 gm/kg seed. After being thoroughly coated, the seeds were allowed to air dry at room temperature. The seeds were then planted into soil amended with a mixture of the fungus Pythium aphanadermatum, sand, and corn meal at a rate sufficient to kill most untreated seeds. The seeds were held at 49° F. for 2 weeks and then at 70° F. for 1 additional week. After this time disease ratings were made.

[12] = system: Rhizoctonia solani; assay: Rice sheath blight control on sprayed rice seedlings (Example 87); type: in vivo; details: Rhizoctonia solani, 168 h, 100 ppm spray, day before inoculation
In short: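 Disease ratings followed 7 days' growth-room incubation of seedlings given a bran/R. solani mycelium inoculum. Inoculation took place one day after spraying to run-off. The spray was a 100 ppm compound suspension in water containing 6% acetone and 250 ppm TREM 014.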

[13] = system: Erysiphe graminis; assay: Barley powdery mildew control on sprayed barley seedlings (Example 81); type: in vivo; details: Blumeria graminis, 168 h; 100 ppm spray, day before inoculation
Procedure: The compounds of the previous examples were again dissolved in acetone in an amount equal to 6% of the final volume and then suspended at a concentration of 100 ppm in purified water containing 250 ppm of the surfactant TREM 014 (polyhydric alcohol esters). These suspensions were sprayed to the point of run-off on barley seedlings. The following day, the plants were inoculated with a spore suspension of the fungus Erysiphe graminis, causal agent of barley powdery mildew, and incubated in growth room for 7 days. Disease ratings were then made. Treated plants from successful treatments had little or no powdery mildew in contrast to untreated plants which were covered with powdery mildew.

[14] = system: cucumber seedlings; assay: Phytotoxicity on cucumber seedlings (Example 80); type: in vivo; parameters: key: G = growth reduction; H = hormonal effects; details: 100 ppm spray
Procedure: The compounds of the previous example were again dissolved in acetone in an amount equal to 6% of the final volume and then suspended at a concentration of 100 ppm in purified water containing 250 ppm of the surfactant TREM 014 (polyhydric alcohol esters). These suspensions were sprayed to the point of run-off, on cucumber seedlings. The following day, the plants were inoculated with a spore suspension of the fungus Erysiphe cichoracearum, causal agent of cucumber powdery mildew, and incubated in a growth room for 7 days. Disease ratings were then made. Treated plants from successful treatments had little or no powdery mildew in contrast to untreated plants which were covered with powdery mildew. Phytotoxicity in the form of growth reduction or hormonal effects was observed on some of the plants in association with disease control.

CCCC[Si](C)(C)Cn1cncn1 [Butyldimethyl(1H-1,2,4-triazol-1-ylmethyl)silane]
pest or weed control at 100 ppm [1]: 0%
pest or weed control at 100 ppm [2]: 100%
pest or weed control at 100 ppm [3]: 0%
pest or weed control at 100 ppm [4]: 0%
pest or weed control at 100 ppm [5]: 0%
inhibition of growth at 100 µg/mL [6]: 95%
pest or weed control at 100 ppm [7]: 0%
pest or weed control at 100 ppm [8]: 0%
No. of 5 Phytophthora species controlled in vitro [9]: 1
pest or weed control at 2 g/kg seed [10]: 0%
pest or weed control at 2 g/kg seed [11]: 0%

C[Si](C)(Cn1cncn1)c1ccc(Oc2ccc(Cl)cc2)cc1 [[4-(4-Chlorophenoxy)phenyl]dimethyl(1H-1,2,4-triazol-1-ylmethyl)silane]
pest or weed control at 100 ppm [1]: 90%
pest or weed control at 100 ppm [2]: 80%
pest or weed control at 100 ppm [3]: 100%
pest or weed control at 100 ppm [4]: 50%
pest or weed control at 100 ppm [5]: 0%
pest or weed control at 100 ppm [12]: 0%
pest or weed control at 100 ppm [7]: 0%
pest or weed control at 100 ppm [8]: 50%
No. of 5 Phytophthora species controlled in vitro [9]: 0

C[Si](C)(Cn1cncn1)c1ccc(Cl)c(Cl)c1 [(3,4-Dichlorophenyl)dimethyl(1H-1,2,4-triazol-1-ylmethyl)silane]
pest or weed control at 100 ppm [1]: 60%
pest or weed control at 100 ppm [2]: 100%
pest or weed control at 100 ppm [13]: 100%
pest or weed control at 100 ppm [3]: 80%
pest or weed control at 100 ppm [4]: 90%
pest or weed control at 100 ppm [5]: 0%
pest or weed control at 100 ppm [12]: 80%
pest or weed control at 100 ppm [7]: 0%
pest or weed control at 100 ppm [8]: 0%
No. of 5 Phytophthora species controlled in vitro [9]: 2
pest or weed control at 2 g/kg seed [11]: 43%

C[Si](Cn1cncn1)(c1ccccc1)c1ccc(-c2ccccc2)cc1 (stereo not shown) [(1,1'-Biphenyl-4-yl)methyl(phenyl)(1H-1,2,4-triazol-1-ylmethyl)silane]
pest or weed control at 100 ppm [1]: 100%
pest or weed control at 100 ppm [2]: 100%
pest or weed control at 100 ppm [3]: 100%
pest or weed control at 100 ppm [4]: 90%
pest or weed control at 100 ppm [5]: 100%
pest or weed control at 100 ppm [12]: 0%
pest or weed control at 100 ppm [7]: 0%
pest or weed control at 100 ppm [8]: 0%
pest or weed control at 2 g/kg seed [10]: 0%
pest or weed control at 2 g/kg seed [11]: 0%

C[Si](C)(Cn1cncn1)c1ccc(-c2ccccc2)cc1 [(1,1'-Biphenyl-4-yl)dimethyl(1H-1,2,4-triazol-1-ylmethyl)silane]
pest or weed control at 100 ppm [1]: 100%
pest or weed control at 100 ppm [2]: 100%
pest or weed control at 100 ppm [3]: 100%
pest or weed control at 100 ppm [4]: 90%
pest or weed control at 100 ppm [5]: 100%
inhibition of growth at 100 µg/mL [6]: 100%
pest or weed control at 2 g/kg seed [10]: 12%
pest or weed control at 2 g/kg seed [11]: 30%

c1ccc([Si](Cn2cncn2)(c2ccccc2)c2ccccc2)cc1 [(1H-1,2,4-Triazol-1-ylmethyl)triphenylsilane]
pest or weed control at 100 ppm [1]: 0%
pest or weed control at 100 ppm [2]: 100%
pest or weed control at 100 ppm [13]: 100%
pest or weed control at 100 ppm [3]: 0%
pest or weed control at 100 ppm [4]: 0%
pest or weed control at 100 ppm [5]: 0%
pest or weed control at 100 ppm [12]: 0%
pest or weed control at 100 ppm [7]: 0%
pest or weed control at 100 ppm [8]: 0%

CC[Si](C)(C)Cn1cncn1 [Ethyldimethyl(1H-1,2,4-triazol-1-ylmethyl)silane]
pest or weed control at 100 ppm [1]: 0%
pest or weed control at 100 ppm [2]: 100%
pest or weed control at 100 ppm [3]: 0%
pest or weed control at 100 ppm [4]: 0%
pest or weed control at 100 ppm [5]: 0%
pest or weed control at 100 ppm [7]: 0%
pest or weed control at 100 ppm [8]: 0%
pest or weed control at 2 g/kg seed [10]: 48%
pest or weed control at 2 g/kg seed [11]: 13%

C[Si](C)(Cn1cnnc1)c1ccc(-c2ccccc2)cc1 [(1,1'-Biphenyl-4-yl)dimethyl(4H-1,2,4-triazol-4-ylmethyl)silane]
pest or weed control at 100 ppm [1]: 0%
pest or weed control at 100 ppm [2]: 90%
pest or weed control at 100 ppm [13]: 0%
pest or weed control at 100 ppm [3]: 80%
pest or weed control at 100 ppm [4]: 100%
pest or weed control at 100 ppm [5]: 0%
inhibition of growth at 100 µg/mL [6]: 96%
pest or weed control at 100 ppm [12]: 0%
pest or weed control at 100 ppm [7]: 0%
pest or weed control at 100 ppm [8]: 0%

C[Si](Cn1cncn1)(c1ccccc1)c1ccccc1 [Methyldiphenyl(1H-1,2,4-triazol-1-ylmethyl)silane]
pest or weed control at 100 ppm [1]: 0%
pest or weed control at 100 ppm [2]: 100%
pest or weed control at 100 ppm [13]: 100%
pest or weed control at 100 ppm [3]: 100%
pest or weed control at 100 ppm [4]: 80%
pest or weed control at 100 ppm [5]: 100%
pest or weed control at 100 ppm [12]: 0%
pest or weed control at 100 ppm [7]: 0%
pest or weed control at 100 ppm [8]: 0%
pest or weed control at 2 g/kg seed [10]: 0%
pest or weed control at 2 g/kg seed [11]: 0%
Phytotoxicity on cucumber [14]: G

COc1ccc([Si](C)(C)Cn2cncn2)cc1 [Dimethyl(4-methoxyphenyl)(1H-1,2,4-triazol-1-ylmethyl)silane]
pest or weed control at 100 ppm [1]: 0%
pest or weed control at 100 ppm [2]: 100%
pest or weed control at 100 ppm [13]: 100%
pest or weed control at 100 ppm [3]: 100%
pest or weed control at 100 ppm [4]: 90%
pest or weed control at 100 ppm [5]: 0%
inhibition of growth at 100 µg/mL [6]: 97%
pest or weed control at 100 ppm [12]: 0%
pest or weed control at 100 ppm [7]: 0%
pest or weed control at 100 ppm [8]: 0%
pest or weed control at 2 g/kg seed [10]: 0%

C[Si](C)(Cn1cncn1)c1cccc2ccccc12 [Dimethyl(1-naphthalenyl)(1H-1,2,4-triazol-1-ylmethyl)silane]
pest or weed control at 100 ppm [1]: 0%
pest or weed control at 100 ppm [2]: 100%
pest or weed control at 100 ppm [13]: 0%
pest or weed control at 100 ppm [3]: 50%
pest or weed control at 100 ppm [4]: 0%
pest or weed control at 100 ppm [5]: 90%
pest or weed control at 100 ppm [12]: 0%
pest or weed control at 100 ppm [7]: 70%
pest or weed control at 100 ppm [8]: 0%
pest or weed control at 2 g/kg seed [11]: 30%

CCCC[Si](C)(Cn1cncn1)c1ccc(F)cc1 (stereo not shown) [Butyl(4-fluorophenyl)methyl(1H-1,2,4-triazol-1-ylmethyl)silane]
pest or weed control at 100 ppm [1]: 0%
pest or weed control at 100 ppm [2]: 100%
pest or weed control at 100 ppm [3]: 100%
pest or weed control at 100 ppm [4]: 0%
pest or weed control at 100 ppm [5]: 0%
inhibition of growth at 100 µg/mL [6]: 100%
pest or weed control at 100 ppm [12]: 80%
pest or weed control at 100 ppm [7]: 100%
pest or weed control at 100 ppm [8]: 0%
pest or weed control at 2 g/kg seed [10]: 0%
pest or weed control at 2 g/kg seed [11]: 0%
